“Also recorded” adds a separate entry of the source. Where a name gives a salt, the structure may show the parent alone.
Assay: Stability and integrity of 1-DNJ-HCl in buffer solutions at 60° C. by NP-HPLC (UV and CAD) and discoloration
Format: physicochemical
Protocol: 1-DNJ-HCl was dissolved in sodium phosphate buffer. 1-DNJ-HCl concentration was 60 mg/mL; sodium phosphate buffer concentration was 100 mM at pH 4.89. The formulation was stored at 60° C. for 4 days. 1-DNJ-HCl solution in water was used as a control. Reaction rate for small molecules such as 1-DNJ-HCl generally follows Arrhenius equation where reaction rate nearly doubles for every 10° C. increase in the temperature. Thus, under this model, the reaction rate at 60° C. would be 2^5 or 32 times the reaction rate at 10° C. Therefore during 4 days at 60° C. 1-DNJ-HCl would degrade by approximately the same percentage as during 128 days (4*32) at 10° C. The stability of 1-DNJ-HCl was measured by normal phase high performance liquid chromatography (NP-HPLC). 1-DNJ-HCl was recorded by UV chromatograms and by Charged Aerosol Detector (CAD) chromatograms. Mobile phase consisted of ACN/30 mM Ammonium Acetate (90/10, v/v). The flow rate was 1.0 ml/min with 5 μl injection at 400° C. UV absorbance was measured at 220 nm CAD detector settings were 35.0 psi, Gain: 100 pA. 1-DNJ-HCl was dissolved in sodium acetate buffer. The 1-DNJ-HCl concentration was 60 mg/mL; sodium acetate buffer concentration was 50 mM at pH 5.5. The formulation was stored at 60° C. for 4 days. 1-DNJ-HCl solution in water was used as control. Reaction rate for small molecules such as 1-DNJ-HCl generally follows the Arrhenius equation, in which the reaction rate nearly doubles for every 10°K increase in the temperature. Thus the reaction rate, under this model, at 60° C. would be 2^5 or 32 times the reaction rate at 10° C. Therefore during 4 days at 60° C. 1-DNJ-HCl would degrade by approximately same percentage as during 128 days at 10° C. The stability of 1-DNJ-HCl was measured by NP-HPLC. Presence of 1-DNJ-HCl was recorded by UV absorbance detector and by Charged Aerosol Detector. Mobile phase consisted of ACN/30 mM Ammonium Acetate (90/10, v/v). The flow rate was 1.0 ml/min with 5 μl injection at 400 C. UV absorbance was measured at 220 nm. CAD detector settings were 35.0 psi, Gain: 100 pA. 1-DNJ-HCl was dissolved in sodium citrate buffer that further includes EDTA. 1-DNJ-HCl concentration was 60 mg/mL; sodium citrate buffer concentration was 50 mM at pH 4.6. The EDTA concentration was 0.05% w/v. Some samples were stored under the nitrogen atmosphere (essentially 100% nitrogen) while others were stored under air. The formulation was stored at 60° C. for 8 days. Stability of 1-DNJ-HCl was measured by NP-HPLC. Presence of 1-DNJ-HCl was recorded by UV absorbance detector and by Charged Aerosol Detector. Mobile phase consisted of ACN/30 mM Ammonium Acetate (90/10, v/v). The flow rate was 1.0 ml/min with 5 μl injection at 400 C. UV absorbance was measured at 220 nm. CAD detector settings were 35.0 psi, Gain: 100 pA. 1-DNJ-HCl was dissolved in sodium citrate buffer. 1-DNJ-HCl concentration was 60 mg/mL; sodium citrate buffer concentration was 50 mM at pH 4.7. The formulation was stored at 60° C. for 8 days. 1-DNJ-HCl solution in water was used as control. Stability of 1-DNJ-HCl was measured by NP-HPLC. Presence of 1-DNJ-HCl was recorded by UV absorbance detector and by Charged Aerosol Detector. Mobile phase consisted of ACN/30 mM Ammonium Acetate (90/10, v/v). The flow rate was 1.0 ml/min with 5 μl injection at 400 C. UV absorbance was measured at 220 nm. CAD detector settings were 35.0 psi, Gain: 100 pA. 1-DNJ-HCl was dissolved in sodium citrate buffer. 1-DNJ-HCl concentration was 60 mg/mL; sodium citrate buffer concentration was 50 mM at pH 5.0. The formulation was stored at 60° C. for 17 days. The samples were stored under the nitrogen atmosphere (essentially 100% nitrogen). 1-DNJ-HCl solution in water was used as control. Reaction rate for small molecules such as 1-DNJ-HCl generally follows Arrhenius equation where reaction rate nearly doubles for every 10°K increase in the temperature. Thus reaction rate at 60° C. would be 2^5 or 32 times the reaction rate at 10° C. Therefore during 17 days at 60° C. […]

[1] = 60 mg/mL in 50 mM sodium acetate buffer pH 5.5, 60° C., 4 days, hydrochloride
[2] = 60 mg/mL in 50 mM sodium citrate buffer pH 4.6, EDTA 0.05% w/v, nitrogen atmosphere, 60° C., 8 days
[3] = 60 mg/mL in 50 mM sodium citrate buffer pH 4.6, EDTA 0.05% w/v, stored under air, 60° C., 8 days
[4] = 60 mg/mL in 100 mM sodium phosphate buffer pH 4.89, 60° C., 4 days
[5] = 60 mg/mL in 100 mM sodium phosphate buffer pH 4.89, 60° C., 4 days, hydrochloride
[6] = control 1-DNJ-HCl aqueous solution, 60° C., 4 days
[7] = control 1-DNJ-HCl aqueous solution, 60° C., 8 days
[8] = control 1-DNJ-HCl aqueous solution, 60° C., 17 days
[9] = sodium citrate buffer, summary of the Examples

Presence of 1-DNJ-HCl (NP-HPLC) (60 mg/mL in 50 mM sodium acetate buffer pH 5.5, 60° C., 4 days): still present | Presence of 1-DNJ-HCl (NP-HPLC) (60 mg/mL in 50 mM sodium citrate buffer pH 4.6, EDTA 0.05% w/v, 60° C., 8 days): still present | New compounds (UV and CAD chromatograms) [2]: No new compounds were detected | Discoloration [3]: slight discoloration | New compounds (UV and CAD chromatograms) [3]: showed presence of new compounds | Presence of 1-DNJ-HCl (NP-HPLC) (60 mg/mL in 50 mM sodium citrate buffer pH 4.7, 60° C., 8 days): still present | Presence of 1-DNJ-HCl (NP-HPLC) (60 mg/mL in 50 mM sodium citrate buffer pH 5.0, nitrogen atmosphere, 60° C., 17 days): still present | Presence of 1-DNJ-HCl (NP-HPLC) [4]: still present | Stability [4]: not stable | Appearance of solution [6]: remainded clear | New compounds (UV and CAD chromatograms) [6]: No new compounds were detected | Discoloration [7]: No discoloration was observed | New compounds (UV and CAD chromatograms) [7]: No new compounds were detected | Discoloration [8]: No discoloration was observed | New compounds (UV and CAD chromatograms) [8]: No new compounds were detected | Relative stability among buffers (sodium citrate buffer compared with sodium phosphate and sodium acetate buffers): most stable | Discoloration [9]: little to no discoloration
Structure (SMILES): OC[C@H]1NC[C@H](O)[C@@H](O)[C@@H]1O [1-DNJ-HCl, 1-deoxynojirimycin hydrochloride]
Discoloration [1]: discoloration of the acetate buffer solution was observed; also recorded: resulted in discoloration | New compounds (UV and CAD chromatograms) [1]: detected presence of new compounds; also recorded: presence of additional compounds | Discoloration [2]: remained clear with no visible discoloration | Discoloration [5]: discoloration of the phosphate buffer solution was observed; also recorded: resulted in discoloration | New compounds (UV and CAD chromatograms) [5]: detected presence of new compounds; also recorded: presence of additional compounds | Additional compounds (HPLC) [9]: little to no presence of additional compounds
